Laboratory results taken from patent US20250152473A1, “STABLE PLINABULIN FORMULATIONS AND METHODS OF THEIR PREPARATION AND USE” (BeyondSpring Pharmaceuticals, Inc., priority 2022, published 2025).

Columns and labels:
[1] = Light sensitivity study of solid plinabulin; format: physicochemical
From the text: Table 8 illustrates the stability of solid plinabulin in a light sensitivity study.

[2] = Stress test of solid plinabulin, 30 days light storage vs dark control; format: physicochemical
From the text: This comparative example reports a plinabulin stress test of solid plinabulin showing relative stability to light storage for 30 days. […]

[3] = solid, minimum of 1.2 million LUX hours and 200 watts/square meter

CC(C)(C)c1[nH]cnc1/C=c1\[nH]c(=O)/c(=C/c2ccccc2)[nH]c1=O [Plinabulin, (3Z,6Z)-3-Benzylidene-6-{[5-(2-methyl-2-propanyl)-1H-imidazol-4-yl]methylene}-2,5-piperazinedione]
Light sensitivity ([1]; solid plinabulin): not light sensitive | Appearance ([1]; solid, Dark Control): Yellow Solid. | HPLC (% AUC) at 214 nm ([1]; solid, Dark Control): 99.3% AUC | HPLC (% AUC) at 250 nm ([1]; solid, Dark Control): 99.5% AUC | HPLC (% AUC) at 370 nm ([1]; solid, Dark Control): 99.4% AUC | Impurity at 214 nm, rrt 0.86 ([1]; solid, Dark Control): 0.21% @rrt 0.86 | Impurity at 214 nm, rrt 0.97 ([1]; solid, Dark Control): 0.33% @rrt 0.97 | Impurity at 214 nm, rrt 1.17 ([1]; solid, Dark Control): 0.06% @rrt 1.17 | Impurity at 214 nm, rrt 1.27 ([1]; solid, Dark Control): 0.04% @rrt 1.27 | KF ([1]; solid, Dark Control): 5.1% | Single impurity >1% AUC at 214 nm ([1]; solid, Dark Control): No single impurity | Appearance ([1]; solid, Time 0): Yellow Solid. | HPLC (% AUC) at 214 nm ([1]; solid, Time 0): 99.2% AUC | HPLC (% AUC) at 250 nm ([1]; solid, Time 0): 99.4% AUC | HPLC (% AUC) at 370 nm ([1]; solid, Time 0): 99.4% AUC | Impurity at 214 nm, rrt 0.86 ([1]; solid, Time 0): 0.21% @rrt 0.86 | Impurity at 214 nm, rrt 0.96 ([1]; solid, Time 0): 0.36% @rrt 0.96 | Impurity at 214 nm, rrt 1.14 ([1]; solid, Time 0): 0.06% @rrt 1.14 | Impurity at 214 nm, rrt 1.18 ([1]; solid, Time 0): 0.05% @rrt 1.18 | Impurity at 214 nm, rrt 1.19 ([1]; solid, Time 0): 0.02% @rrt 1.19 | Impurity at 214 nm, rrt 1.28 ([1]; solid, Time 0): 0.02% @rrt 1.28 | KF ([1]; solid, Time 0): 5.1% | Single impurity >1% AUC at 214 nm ([1]; solid, Time 0): No single impurity | Appearance [1, 3]: Yellow Solid. | HPLC (% AUC) at 214 nm [1, 3]: 99.4% AUC | HPLC (% AUC) at 250 nm [1, 3]: 99.4% AUC | HPLC (% AUC) at 370 nm [1, 3]: 99.5% AUC | Impurity at 214 nm, rrt 0.40 [1, 3]: 0.02% @rrt 0.40 | Impurity at 214 nm, rrt 0.49 [1, 3]: 0.05% @rrt 0.49 | Impurity at 214 nm, rrt 0.68 [1, 3]: 0.02% @rrt 0.68 | Impurity at 214 nm, rrt 0.86 [1, 3]: 0.08% @rrt 0.86 | Impurity at 214 nm, rrt 0.97 [1, 3]: 0.29% @rrt 0.97 | Impurity at 214 nm, rrt 1.17 [1, 3]: 0.05% @rrt 1.17 | Impurity at 214 nm, rrt 1.27 [1, 3]: 0.02% @rrt 1.27 | KF [1, 3]: 5.0% | Single impurity >1% AUC at 214 nm [1, 3]: No single impurity | Alcohol Impurity by HPLC ([2]; Control Sample (dark), 0 days): 0.02% | Amide Impurity by HPLC ([2]; Control Sample (dark), 0 days): 0.02% | Appearance ([2]; Control Sample (dark), 0 days): Yellow | Assay by HPLC ([2]; Control Sample (dark), 0 days): 98.9% w/w | Cyano Impurity by HPLC ([2]; Control Sample (dark), 0 days): 0.1% | De-Carboxylate Impurity by HPLC ([2]; Control Sample (dark), 0 days): 0.1% | Ether Impurity by HPLC ([2]; Control Sample (dark), 0 days): 0.02% | Impurity-489-1 by HPLC ([2]; Control Sample (dark), 0 days): 0.1% | Impurity-489-2 by HPLC ([2]; Control Sample (dark), 0 days): 0.1% | Other Unspecified Impurity by HPLC ([2]; Control Sample (dark), 0 days): 0.02% | Total Impurities by HPLC ([2]; Control Sample (dark), 0 days): 0.3% | Water ([2]; Control Sample (dark), 0 days): 0.1% | Alcohol Impurity by HPLC ([2]; Control Sample (dark), 5 days): 0.02% | Amide Impurity by HPLC ([2]; Control Sample (dark), 5 days): 0.02% | Appearance ([2]; Control Sample (dark), 5 days): Yellow | Assay by HPLC ([2]; Control Sample (dark), 5 days): 98.42% w/w | Cyano Impurity by HPLC ([2]; Control Sample (dark), 5 days): 0.11% | De-Carboxylate Impurity by HPLC ([2]; Control Sample (dark), 5 days): 0.09% | Ether Impurity by HPLC ([2]; Control Sample (dark), 5 days): 0.02% | Impurity-489-1 by HPLC ([2]; Control Sample (dark), 5 days): 0.16% | Impurity-489-2 by HPLC ([2]; Control Sample (dark), 5 days): 0.02% | Other Unspecified Impurity by HPLC ([2]; Control Sample (dark), 5 days): 0.02% | Total Impurities by HPLC ([2]; Control Sample (dark), 5 days): 0.36% | Water ([2]; Control Sample (dark), 5 days): 0.05% | Alcohol Impurity by HPLC ([2]; Control Sample (dark), 10 days): 0.02% | Amide Impurity by HPLC ([2]; Control Sample (dark), 10 days): 0.02% | Appearance ([2]; Control Sample (dark), 10 days): Yellow | Assay by HPLC ([2]; Control Sample (dark), 10 days): 99.33% w/w | Cyano Impurity by HPLC ([2]; Control Sample (dark), 10 days): 0.12% | De-Carboxylate Impurity by HPLC ([2]; Control Sample (dark), 10 days): 0.09% | Ether Impurity by HPLC ([2]; Control Sample (dark), 10 days): 0.02% | Impurity-489-1 by HPLC ([2]; Control Sample (dark), 10 days): 0.12% | Impurity-489-2 by HPLC ([2]; Control Sample (dark), 10 days): 0.02% | Other Unspecified Impurity by HPLC ([2]; Control Sample (dark), 10 days): 0.02% | Total Impurities by HPLC ([2]; Control Sample (dark), 10 days): 0.32% | Water ([2]; Control Sample (dark), 10 days): 0.05% | Alcohol Impurity by HPLC ([2]; Control Sample (dark), 30 days): 0.02% | Amide Impurity by HPLC ([2]; Control Sample (dark), 30 days): 0.02% | Appearance ([2]; Control Sample (dark), 30 days): Yellow | Assay by HPLC ([2]; Control Sample (dark), 30 days): 99.29% w/w | Cyano Impurity by HPLC ([2]; Control Sample (dark), 30 days): 0.11% | De-Carboxylate Impurity by HPLC ([2]; Control Sample (dark), 30 days): 0.09% | Ether Impurity by HPLC ([2]; Control Sample (dark), 30 days): 0.02% | Impurity-489-1 by HPLC ([2]; Control Sample (dark), 30 days): 0.15% | Impurity-489-2 by HPLC ([2]; Control Sample (dark), 30 days): 0.02% | Other Unspecified Impurity by HPLC ([2]; Control Sample (dark), 30 days): 0.05% | Total Impurities by HPLC ([2]; Control Sample (dark), 30 days): 0.36% | Water ([2]; Control Sample (dark), 30 days): 0.05% | Alcohol Impurity by HPLC ([2]; Photo Sample, 0 days): 0.02% | Amide Impurity by HPLC ([2]; Photo Sample, 0 days): 0.02% | Assay by HPLC ([2]; Photo Sample, 0 days): 98.9% w/w | Cyano Impurity by HPLC ([2]; Photo Sample, 0 days): 0.1% | De-Carboxylate Impurity by HPLC ([2]; Photo Sample, 0 days): 0.1% | Ether Impurity by HPLC ([2]; Photo Sample, 0 days): 0.02% | Impurity-489-1 by HPLC ([2]; Photo Sample, 0 days): 0.1% | Impurity-489-2 by HPLC ([2]; Photo Sample, 0 days): 0.1% | Other Unspecified Impurity by HPLC ([2]; Photo Sample, 0 days): 0.02% | Total Impurities by HPLC ([2]; Photo Sample, 0 days): 0.3% | Water ([2]; Photo Sample, 0 days): 0.1% | Alcohol Impurity by HPLC ([2]; Photo Sample, 5 days): 0.02% | Amide Impurity by HPLC ([2]; Photo Sample, 5 days): 0.02% | Assay by HPLC ([2]; Photo Sample, 5 days): 99.37% w/w | Cyano Impurity by HPLC ([2]; Photo Sample, 5 days): 0.11% | De-Carboxylate Impurity by HPLC ([2]; Photo Sample, 5 days): 0.09% | Ether Impurity by HPLC ([2]; Photo Sample, 5 days): 0.02% | Impurity-489-1 by HPLC ([2]; Photo Sample, 5 days): 0.10% | Impurity-489-2 by HPLC ([2]; Photo Sample, 5 days): 0.05% | Other Unspecified Impurity by HPLC ([2]; Photo Sample, 5 days): 0.02% | Total Impurities by HPLC ([2]; Photo Sample, 5 days): 0.3% | Water ([2]; Photo Sample, 5 days): 0.05% | Alcohol Impurity by HPLC ([2]; Photo Sample, 10 days): 0.02% | Amide Impurity by HPLC ([2]; Photo Sample, 10 days): 0.02% | Assay by HPLC ([2]; Photo Sample, 10 days): 99.36% w/w | Cyano Impurity by HPLC ([2]; Photo Sample, 10 days): 0.12% | De-Carboxylate Impurity by HPLC ([2]; Photo Sample, 10 days): 0.08% | Ether Impurity by HPLC ([2]; Photo Sample, 10 days): 0.02% | Impurity-489-1 by HPLC ([2]; Photo Sample, 10 days): 0.07% | Impurity-489-2 by HPLC ([2]; Photo Sample, 10 days): 0.05% | Other Unspecified Impurity by HPLC ([2]; Photo Sample, 10 days): 0.02% | Total Impurities by HPLC ([2]; Photo Sample, 10 days): 0.27% | Water ([2]; Photo Sample, 10 days): 0.05% | Alcohol Impurity by HPLC ([2]; Photo Sample, 30 days): 0.02% | Amide Impurity by HPLC ([2]; Photo Sample, 30 days): 0.02% | Assay by HPLC ([2]; Photo Sample, 30 days): 99.17% w/w | Cyano Impurity by HPLC ([2]; Photo Sample, 30 days): 0.11% | De-Carboxylate Impurity by HPLC ([2]; Photo Sample, 30 days): 0.09% | Ether Impurity by HPLC ([2]; Photo Sample, 30 days): 0.02% | Impurity-489-1 by HPLC ([2]; Photo Sample, 30 days): 0.06% | Impurity-489-2 by HPLC ([2]; Photo Sample, 30 days): 0.05% | Other Unspecified Impurity by HPLC ([2]; Photo Sample, 30 days): 0.1% | Total Impurities by HPLC ([2]; Photo Sample, 30 days): 0.6% | Water ([2]; Photo Sample, 30 days): 0.05%
